{"source": "paper PMC3723537", "about": "“Structural Basis for Native Agonist and Synthetic Inhibitor Recognition by the Pseudomonas aeruginosa Quorum Sensing Regulator PqsR (MvfR)” (PLoS Pathogens, 2013)", "key": {"PqsR [1]": {"target": "T1, PqsR (Pseudomonas aeruginosa, UniProt Q9I4X0)", "T1 sequence (Q9I4X0 1-332)": "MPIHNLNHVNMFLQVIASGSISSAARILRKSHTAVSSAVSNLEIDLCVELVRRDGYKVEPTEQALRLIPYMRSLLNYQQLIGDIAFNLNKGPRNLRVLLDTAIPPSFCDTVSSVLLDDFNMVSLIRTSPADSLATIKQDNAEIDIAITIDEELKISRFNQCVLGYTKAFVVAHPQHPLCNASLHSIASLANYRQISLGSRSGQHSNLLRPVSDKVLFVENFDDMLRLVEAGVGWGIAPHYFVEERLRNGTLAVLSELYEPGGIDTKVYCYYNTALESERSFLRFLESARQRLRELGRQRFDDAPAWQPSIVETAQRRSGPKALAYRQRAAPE", "conditions": "cited from earlier work"}, "PqsR [2]": {"target": "T1, PqsR", "test": "cell-based", "design": "assayed for their agonist and antagonist activities in a whole P. aeruginosa bacterial cell assay; endogenous in cells; host or cells: P. aeruginosa PAO1 wild type, ΔpqsA or ΔpqsAH strains carrying a chromosomal (mini)CTX::pqsA'-lux fusion"}, "PqsR [3]": {"target": "T1, PqsR", "design": "assayed for their agonist and antagonist activities in a whole P. aeruginosa bacterial cell assay; endogenous in cells; host or cells: P. aeruginosa PAO1 wild type, ΔpqsA or ΔpqsAH strains carrying a chromosomal (mini)CTX::pqsA'-lux fusion; method as in PMID 17922753", "conditions": "whole P. aeruginosa cell assays; cited from earlier work"}, "PqsR [4]": {"target": "T1, PqsR", "design": "assayed for their agonist and antagonist activities in a whole P. aeruginosa bacterial cell assay; endogenous in cells; host or cells: P. aeruginosa PAO1 wild type, ΔpqsA or ΔpqsAH strains carrying a chromosomal (mini)CTX::pqsA'-lux fusion; method as in Xiao et al. [21]", "conditions": "different P. aeruginosa strain and reporter assay; ref Xiao et al. [21]; cited from earlier work"}, "PqsR [5]": {"target": "T1, PqsR", "test": "cell-based", "design": "assayed for their agonist and antagonist activities in a whole P. aeruginosa bacterial cell assay; endogenous in cells; host or cells: P. aeruginosa PAO1 wild type, ΔpqsA or ΔpqsAH strains carrying a chromosomal (mini)CTX::pqsA'-lux fusion", "conditions": "Figure 2 (AQs); P. aeruginosa ΔpqsA CTX::pqsA'-lux strain; read-out: Agonist EC50 ±SD"}, "PqsR Leu207Glu": {"target": "PqsR Leu207Glu (Pseudomonas aeruginosa, UniProt Q9I4X0, L207E)", "test": "Response of PqsR-6His ligand binding site variants to PQS and HHQ, pqsA'-lux in ΔpqsA ΔpqsH ΔpqsR strain", "assay_type": "cell-based", "conditions": "Leu207Glu mutation; co-inducer 40 µM"}, "PqsR [6]": {"target": "T1, PqsR", "assay_type": "cell-based", "design": "assayed for their agonist and antagonist activities in a whole P. aeruginosa bacterial cell assay; endogenous in cells; host or cells: P. aeruginosa PAO1 wild type, ΔpqsA or ΔpqsAH strains carrying a chromosomal (mini)CTX::pqsA'-lux fusion", "conditions": "100 µM QZN; ΔpqsA mutant"}, "phzA1 promoter": {"system": "phzA1 promoter", "assay_type": "cell-based", "conditions": "12.5 µM; data not shown"}, "P. aeruginosa PAO1 [7]": {"system": "P. aeruginosa PAO1", "test": "AQ production by LC-MS/MS of culture extracts", "assay_type": "cell-based, Pseudomonas aeruginosa", "conditions": "PAO1 grown with 200 µM; semi-quantitative", "protocol": "(§1) The impact of 3-NH2-7Cl-C9-QZN on (a) AQ production was assayed by LC MS/MS after extracting bacterial cultures with acidified ethyl acetate; (b) pyocyanin was quantified spectrophotometrically and (c) biofilm development was examined using a Bioflux 200 microfluidics device (Fluxion Biosciences; in conjunction with GFP-labelled P. aeruginosa strains, [53]). All assays were performed in triplicate at least twice."}, "P. aeruginosa PAO1 [8]": {"system": "P. aeruginosa PAO1", "test": "Pyocyanin production, quantified spectrophotometrically", "assay_type": "cell-based, Pseudomonas aeruginosa", "conditions": "PAO1 cultures, 50 or 100 µM", "protocol": "as §1"}, "P. aeruginosa": {"system": "P. aeruginosa", "assay_type": "cell-based", "conditions": "GFP-tagged wild type, flow conditions"}, "lecA": {"system": "lecA", "assay_type": "cell-based", "conditions": "P. aeruginosa PAO1, compared with control"}, "PqsR [9]": {"target": "T1, PqsR", "test": "cell-based", "design": "assayed for their agonist and antagonist activities in a whole P. aeruginosa bacterial cell assay; endogenous in cells; host or cells: P. aeruginosa PAO1 wild type, ΔpqsA or ΔpqsAH strains carrying a chromosomal (mini)CTX::pqsA'-lux fusion", "remark": "listed apart in the source"}}, "note": "Like-named read-outs stand apart in the source and are kept apart here."}
{"compound": "CCCCCCCc1cc(=O)c2ccc(C(F)(F)F)cc2[nH]1", "note": "[7-CF3-substituted HHQ]", "values": [{"measurement": "Agonist activity relative to HHQ", "setting": "PqsR [1]", "result": "about 50%"}]}
{"compound": "CCCCCCCc1[nH]c2ccccc2c(=O)c1O", "note": "[compound 1, 2-heptyl-3-hydroxy-4(1H)-quinolone]", "values": [{"measurement": "EC50", "setting": "PqsR [2]; Figure 2 (AQs), P. aeruginosa ΔpqsAH CTX::pqsA'-lux strain, read-out: Agonist EC50 ±SD", "result": "3.8 ± 1.6", "unit": "µM"}, {"measurement": "Induction of the pqsA promoter compared with HHQ", "setting": "PqsR [2]; P. aeruginosa ΔpqsA ΔpqsH double mutant", "result": "~3", "unit": "fold"}, {"measurement": "EC50 for PqsR-dependent activation of pqsA", "setting": "PqsR [3]", "result": "low micromolar range"}, {"measurement": "Induction compared with HHQ", "setting": "PqsR [4]", "result": 100, "unit": "fold"}, {"measurement": "EC50", "setting": "PqsR [5]", "result": 1.9, "unit": "µM"}, {"measurement": "Response, % of pqsA promoter activity with respect to strain expressing PqsR-6His", "setting": "PqsR Leu207Glu", "result": 39, "unit": "%"}]}
{"compound": "CCCCCCCCCc1nc2cc(Cl)ccc2c(=O)n1N", "note": "[compound 23]", "values": [{"measurement": "PQS concentration that competitively overcomes QZN-mediated PqsR inhibition", "setting": "PqsR [6]", "result": "above 25 µM"}, {"measurement": "Reduction of phzA1 promoter activity", "setting": "phzA1 promoter", "result": "~50", "unit": "%"}, {"measurement": "Production of HHQ, NHQ, their N-oxides and PQS", "setting": "P. aeruginosa PAO1 [7]", "result": "reduced to very low levels"}, {"measurement": "Pyocyanin levels", "setting": "P. aeruginosa PAO1 [8]", "result": "substantially reduced"}, {"measurement": "Biofilm development", "setting": "P. aeruginosa", "result": "reduced surface area coverage"}, {"measurement": "Expression of lecA", "setting": "lecA", "result": "reduced"}, {"measurement": "IC50", "setting": "PqsR [9]", "result": "5 ± 1.6", "unit": "µM"}]}
